Data taken from patent US20230348456A1, “QUINAZOLINONES, PHARMACEUTICAL COMPOSITIONS CONTAINING THE SAME, AND METHODS OF USING THE SAME” (Repare Therapeutics Inc., priority 2022, published 2023).
pIC50: −log10 of the molar value.

target: recombinant human Myt1 (Homo sapiens (Human), UniProt Q99640); experiment: Myt1 enzymatic assay (ADP-Glo kinase assay); assay type: biochemical; details: recombinant human Myt1 18 nM, ATP 10 μM
Description: Detection of Myt1 kinase activity utilized a recombinant human Myt1 kinase assay measuring the hydrolysis of ATP using a commercially available ADP-Glo Assay (ADP-Glo™ Kinase Assay from Promega, 10 000 assays, #V9102). Briefly, 5 μL recombinant human Myt1 (full length PKMYT1 recombinant human protein expressed in insect cells from Thermo Fisher #A33387; ˜80% purity) was prepared in reaction buffer (70 mM HEPES, 3 mM MgCl2, 3 mM MnCl2, 50 μg/ml PEG 20000, 3 μM Na-orthovanadate, 1.2 mM DTT) and added to 384 well white polystyrene, flat bottom well, non-treated, microplate (Corning #3572). After this, 5 μL of compounds (diluted in reaction buffer to 0.5% DMSO) was added to the microplate and the plate was spun briefly and incubated at 22° C. for 15 minutes. Ultra-Pure Adenosine Triphosphate (ATP) solution (ADP-Glo kit from Promega) was diluted in reaction buffer and 5 μL was added to the microplate, spun down briefly and incubated for 60 minutes at 30° C. The final Myt1 enzyme concentration was 18 nM and the final ATP concentration was 10 μM. After the 60-minute incubation, 15 μL of ADP-Glo reagent was added and the plate was spun briefly and sealed and incubated in the dark for 40 minutes at 22° C. Following this, 30 μL of kinase detection reagent was added per well and the plate was spun briefly, sealed and incubated for 45-60 minutes at 22° C. in the dark. Luminescence was read using the Envision (250 ms integration). The IC50 and the % max inhibition were calculated for each inhibitor compound tested.

Sequence of recombinant human Myt1 (Q99640 whole entry): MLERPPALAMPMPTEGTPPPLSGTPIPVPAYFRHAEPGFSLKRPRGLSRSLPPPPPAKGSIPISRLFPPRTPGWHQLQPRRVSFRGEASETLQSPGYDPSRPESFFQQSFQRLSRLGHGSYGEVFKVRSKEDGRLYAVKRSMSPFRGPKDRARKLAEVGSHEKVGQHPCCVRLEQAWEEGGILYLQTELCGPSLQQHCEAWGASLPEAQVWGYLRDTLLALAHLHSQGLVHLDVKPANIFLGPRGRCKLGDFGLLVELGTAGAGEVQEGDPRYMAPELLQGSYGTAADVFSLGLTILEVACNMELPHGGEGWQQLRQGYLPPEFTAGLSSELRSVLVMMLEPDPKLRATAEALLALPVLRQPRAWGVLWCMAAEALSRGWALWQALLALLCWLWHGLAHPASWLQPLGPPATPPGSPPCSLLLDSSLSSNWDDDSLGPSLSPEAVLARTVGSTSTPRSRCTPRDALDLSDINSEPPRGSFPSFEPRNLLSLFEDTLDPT

Structure (SMILES) | pIC50
Cc1ccc(O)c(C)c1-c1cc(-c2cnn(C3CC3)c2)c2nc(-c3ccncc3)[nH]c(=O)c2c1N (atropisomer, axis not shown) [Compound 27] | 8.70
Cc1ccc(O)c(C)c1-c1cc(C2CC2)c2nc(-c3ccncc3)[nH]c(=O)c2c1N (single isomer, unassigned) [Compound 22, 5-amino-8-cyclopropyl-6-(3-hydroxy-2,6-dimethyl-phenyl)-2-(4-pyridyl)-3H-quinazolin-4-one] | 8.52
Nc1c(-c2cccc3[nH]ncc23)cc(-c2nccs2)c2nc(-c3ccccc3)[nH]c(=O)c12 [Compound 1, 5-amino-6-(1H-indazol-4-yl)-2-phenyl-8-(thiazol-2-yl)quinazolin-4(3H)-one] | 8.40
Nc1c(-c2cccc3[nH]ncc23)cc(-c2nccs2)c2nc(-c3ccc(N4CCOCC4)nc3)[nH]c(=O)c12 [Compound 2] | 7.82
Cc1ccc(-c2nc3c(-c4nccs4)cc(-c4cccc5[nH]ncc45)c(N)c3c(=O)[nH]2)cc1 [Compound 3] | 7.48
Nc1ccc(-c2nc3c(-c4nccs4)cc(-c4cccc5[nH]ncc45)c(N)c3c(=O)[nH]2)cn1 [Compound 4] | 8.30
N#Cc1ccc(-c2nc3c(-c4nccs4)cc(-c4cccc5[nH]ncc45)c(N)c3c(=O)[nH]2)cc1 [Compound 5] | 7.05
Nc1c(-c2cccc3[nH]ncc23)cc(-c2nccs2)c2nc(-c3ccc(-c4ccccc4)cc3)[nH]c(=O)c12 [Compound 6] | < 5.70
Nc1c(-c2cccc3[nH]ncc23)cc(-c2nccs2)c2nc(C3CC3)[nH]c(=O)c12 [Compound 8] | 6.88
Cc1nc2c(-c3nccs3)cc(-c3cccc4[nH]ncc34)c(N)c2c(=O)[nH]1 [Compound 9] | 7.33
Nc1c(-c2cccc3[nH]ncc23)cc(Br)c2nc(-c3ccc(N4CCNCC4)nc3)[nH]c(=O)c12 [Compound 10] | 8.52
Nc1c(-c2cccc3[nH]ncc23)cc(Br)c2nc(-c3ccc(N4CCN(C5CC5)C(=O)C4)nc3)[nH]c(=O)c12 [Compound 11] | 8.30
CN(C)c1ccc(-c2nc3c(Br)cc(-c4cccc5[nH]ncc45)c(N)c3c(=O)[nH]2)cn1 [Compound 12] | 8.05
Nc1c(-c2cccc3[nH]ncc23)cc(-c2nccs2)c2nc(C3CCOCC3)[nH]c(=O)c12 [Compound 13] | 5.85
CS(=O)(=O)c1ccc(-c2nc3c(-c4nccs4)cc(-c4cccc5[nH]ncc45)c(N)c3c(=O)[nH]2)cc1 [Compound 14] | 8.22
Nc1c(-c2cccc3[nH]ncc23)cc(-c2nccs2)c2nc(-c3ccnc(N4CCOCC4)c3)[nH]c(=O)c12 [Compound 15, 5-amino-6-(1H-indazol-4-yl)-2-(2-morpholinopyridin-4-yl)-8-(thiazol-2-yl)quinazolin-4(3H)-one] | 8.00
Nc1ccc(-c2nc3c(-c4nccs4)cc(-c4cccc5[nH]ncc45)c(N)c3c(=O)[nH]2)cc1 [Compound 16] | 7.27

Structure (SMILES) | pIC50
CC(=O)Nc1ccc(-c2nc3c(-c4nccs4)cc(-c4cccc5[nH]ncc45)c(N)c3c(=O)[nH]2)cc1 [Compound 17] | 7.11
Nc1c(-c2cccc3[nH]ncc23)cc(-c2nccs2)c2nc(-c3cccc(N4CCOCC4)c3)[nH]c(=O)c12 [Compound 18] | 8.05
Nc1c(-c2cccc3[nH]ncc23)cc(Br)c2nc(-c3ccc(NC4CCOC4)nc3)[nH]c(=O)c12 (stereo not drawn) [Compound 19] | 8.52
Cc1cccc(-c2nc3c(-c4nccs4)cc(-c4cccc5[nH]ncc45)c(N)c3c(=O)[nH]2)c1 [Compound 20] | 8.00
N#Cc1cccc(-c2nc3c(-c4nccs4)cc(-c4cccc5[nH]ncc45)c(N)c3c(=O)[nH]2)c1 [Compound 21] | 8.22
Nc1c(-c2cccc3[nH]ncc23)cc(Br)c2nc(-c3ccc(NCCN4CCCC4)nc3)[nH]c(=O)c12 [Compound 23] | 8.40
CN1CCN(c2ccc(-c3nc4c(Br)cc(-c5cccc6[nH]ncc56)c(N)c4c(=O)[nH]3)cn2)CC1 [Compound 24] | 8.00
Nc1c(-c2cccc3[nH]ncc23)cc(Br)c2nc(-c3ccc(N4CCOCC4)nc3)[nH]c(=O)c12 [Compound 25, 5-amino-8-bromo-6-(1H-indazol-4-yl)-2-(6-morpholinopyridin-3-yl)quinazolin-4(3H)-one 2,2,2-trifluoroacetate] | 7.64
Nc1c(-c2cccc3[nH]ncc23)cc(Br)c2nc(-c3ccc(N4CCN(C5CC5)CC4)nc3)[nH]c(=O)c12 [Compound 26] | 8.30
Nc1c(-c2cccc3[nH]ncc23)cc(-c2nccs2)c2nc[nH]c(=O)c12 [Compound 28] | 8.40
COCCNc1ccc(-c2nc3c(Br)cc(-c4cccc5[nH]ncc45)c(N)c3c(=O)[nH]2)cn1 [Compound 29] | 8.52
Nc1c(-c2cccc3[nH]ncc23)cc(-c2nccs2)c2nc(-c3ccnc(N4CCNCC4)c3)[nH]c(=O)c12 [Compound 31] | 7.82
Nc1c(-c2cccc3[nH]ncc23)cc(Br)c2nc(-c3ccc(N4CCC(C(=O)O)CC4)nc3)[nH]c(=O)c12 [Compound 32] | 8.22
Nc1c(-c2cccc3[nH]ncc23)cc(-c2nccs2)c2nc(-c3ccncc3)[nH]c(=O)c12 [Compound 33] | 8.05
Nc1c(-c2cccc3[nH]ncc23)cc(Br)c2nc(-c3ccc(NC4COC4)nc3)[nH]c(=O)c12 [Compound 35] | 7.54
CN1CC=C(c2cc(-c3cccc4[nH]ncc34)c(N)c3c(=O)[nH]c(-c4ccncc4)nc23)CC1 [Compound 56] | 8.15

Second part, the compound after the results:

pIC50 | Structure (SMILES)
7.12 | Nc1c(-c2cccc3[nH]ncc23)cc(Br)c2nc(-c3ccc(N4CCN(CCO)CC4)nc3)[nH]c(=O)c12 [Compound 36]
7.96 | COCCNc1cc(-c2nc3c(Br)cc(-c4cccc5[nH]ncc45)c(N)c3c(=O)[nH]2)ccn1 [Compound 37]
8.00 | CN1CCN(c2cc(-c3nc4c(Br)cc(-c5cccc6[nH]ncc56)c(N)c4c(=O)[nH]3)ccn2)CC1 [Compound 38]
7.74 | Nc1c(-c2cccc3[nH]ncc23)cc(-c2nccs2)c2nc(-c3cccc(CN4CCOCC4)c3)[nH]c(=O)c12 [Compound 40]
8.00 | Nc1c(-c2cccc3[nH]ncc23)cc(-c2nccs2)c2nc(-c3cccnn3)[nH]c(=O)c12 [Compound 41]
7.70 | COCc1nc2c(-c3nccs3)cc(-c3cccc4[nH]ncc34)c(N)c2c(=O)[nH]1 [Compound 43]
7.96 | Nc1c(-c2cccc3[nH]ncc23)cc(Br)c2nc(-c3ccc(N4CCCCC4CO)nc3)[nH]c(=O)c12 (stereo not drawn) [Compound 44]
7.74 | Nc1c(-c2cccc3[nH]ncc23)cc(Br)c2nc(-c3ccc(N4CCC(O)CC4)nc3)[nH]c(=O)c12 [Compound 45]
< 5.70 | Nc1c(-c2cccc3[nH]ncc23)cc(-c2nccs2)c2nc(Cc3ccccc3)[nH]c(=O)c12 [Compound 46]
7.96 | CC1(O)CCN(c2ccc(-c3nc4c(Br)cc(-c5cccc6[nH]ncc56)c(N)c4c(=O)[nH]3)cn2)CC1 [Compound 47]
7.52 | Nc1c(-c2cccc3[nH]ncc23)cc(-c2ccc(F)cc2)c2nc[nH]c(=O)c12 [Compound 48, 5-amino-8-(4-fluorophenyl)-6-(1H-indazol-4-yl) quinazolin-4(3H)-one]
6.00 | Nc1c(-c2cccc3[nH]ncc23)cc(-c2cccc(C(F)(F)F)c2)c2nc[nH]c(=O)c12 [Compound 49]
8.70 | Nc1c(-c2cccc3[nH]ncc23)cc(-c2cccc(OCCN3CCOCC3)n2)c2nc(-c3ccncc3)[nH]c(=O)c12 [Compound 50, 5-amino-6-(1H-indazol-4-yl)-8-[6-(2-morpholinoethoxy)-2-pyridyl]-2-(4-pyridyl)-3H-quinazolin-4-one]
5.91 | Cc1ccc2[nH]ncc2c1-c1cc(-c2ccnnc2)c2c(c1N)C(=O)NC2 [Compound 51]
8.30 | Nc1c(-c2cccc3[nH]ncc23)cc(-c2cccc(OCCN3CCOCC3)c2)c2nc(-c3ccncc3)[nH]c(=O)c12 [Compound 52]
8.70 | Nc1c(-c2cccc3[nH]ncc23)cc(-c2cccc(OCCN3CCCC3)n2)c2nc(-c3ccncc3)[nH]c(=O)c12 [Compound 54]
8.40 | Nc1c(-c2cccc3[nH]ncc23)cc(-c2cccc(OC[C@@H]3CCCO3)n2)c2nc(-c3ccncc3)[nH]c(=O)c12 [Compound 55]
8.70 | CC(=O)N1CC=C(c2cc(-c3cccc4[nH]ncc34)c(N)c3c(=O)[nH]c(-c4ccncc4)nc23)CC1 [Compound 57]
9.00 | Nc1c(-c2cccc3[nH]ncc23)cc(-c2cnn(C3COC3)c2)c2nc(-c3ccncc3)[nH]c(=O)c12 [Compound 58]
8.52 | CN1CCC(n2cc(-c3cc(-c4cccc5[nH]ncc45)c(N)c4c(=O)[nH]c(-c5ccncc5)nc34)cn2)CC1 [Compound 60]
8.70 | Cn1ccc(-c2cc(-c3cccc4[nH]ncc34)c(N)c3c(=O)[nH]c(-c4ccncc4)nc23)n1 [Compound 61]
6.27 | Cc1ccc2[nH]ncc2c1-c1cc(-c2ccc(F)cn2)c2c(c1N)C(=O)NC2 [Compound 62]
7.80 | Cc1ccc2[nH]ncc2c1-c1cc(-c2nccs2)c2c(c1N)C(=O)NC2 [Compound 63]
8.52 | Nc1c(-c2cccc3[nH]ncc23)cc(C2=CCOCC2)c2nc(-c3ccncc3)[nH]c(=O)c12 [Compound 64]
